Data from patent US5652249A, “Method of treating depression” (Nippon Shinyaku Co., Inc., priority 1993, dated 1997).

Assays:
[1] = test system: rats; test: Rat forced swimming test (immobility time); format: in vivo, rat (male Wistar); settings: for Immobility Time (mean ± S.E.): N=10; for Effect on the immobility time in the forced swimming test (in words): Dunnett's test vs control
Protocol: (§1) Particularly the forced swimming test has been used most widely in the evaluation of antidepressant drugs in animals. Reportedly the immobility time-shortening activity of an antidepressant drug as assayed by this test is highly correlated with the clinical efficacy of the drug in man (F. Borsini and A. Meli, 1988).
Five-week old male Wistar rats were used. A cylindrical vessel measuring 18 cm in diameter and 40 cm deep was filled with 25° C. of water to the level of 17 cm from the bottom, and the rat was forced to swim in the water for 15 minutes (Session I). After 24 hours, the rat was put again in the vessel for 5 minutes and the duration of time the rat remained motionless without swimming was determined (Session II). The drug was orally administered twice, viz. at completion of Session I and 1 hr before the start of Session II. The drug was suspended in 0.5% methylcellulose (MC) solution for the administration. The control group was orally given the same volume of 0.5% MC solution. Compound No. 2 was used as the test drug. As reference drugs, desipramine, which is a representative antidepressant, and aniracetam and idebenone, both of which are enhancers of cerebral circulation and metabolism, were used. The statistical significance of between groups differences was analyzed by Dunnett's test.

[2] = test system: rats; test: Rat learned helplessness test (escape failures); format: in vivo; settings: for No. of escape failures (mean ± S.E.): oral once daily for 10 days, ECS group, 40 avoidance tasks, N=10
Excerpt: as §1
The rat was orally administered with the drug once daily for 10 consecutive days. On days 8-10 of administration, the rat was placed in a shuttle box in which it received 100 unescapable electroconvulsive shocks (ECS) daily. The day after the last ECS session, the active avoidance task was given 40 times and the number of failures to escape was recorded. Compound No. 2 was used as the test drug. As a reference drug, desipramine was used.

[3] = Acute toxicity testing, oral, mice; set-up: species or system mouse (male ddy-strain); settings: mouse, in vivo, male ddy mice, 2 weeks observation, probit method
Protocol: (1) Groups of five male ddy-strain mice aged 6-7 weeks were used. The animals were fasted for 16-18 hours (from the previous day) and then orally given the test compound. The LD50 values were calculated by the probit method based on the mortality observed within the succeeding period of 2 weeks.

[4] = Acute toxicity testing, oral, rats; set-up: species or system rat (male SD-strain); settings: rat, in vivo, male SD rats, two-week observation, probit method
Protocol: (2) Groups of five male SD-strain rats weighing 280-360 g were used. The animals were fasted for 16-18 hours (from the previous day) and then orally given the test compound. The LD50 values were calculated by the probit method based on the mortality observed within the succeeding two-week period.

[5] = 30 mg/kg, oral twice, *p < 0.01 vs control
[6] = 100 mg/kg, oral twice, *p < 0.01 vs control
[7] = 1 mg/kg, oral twice, *p < 0.01 vs control
[8] = 3 mg/kg, oral twice, *p < 0.01 vs control
[9] = 10 mg/kg, oral twice, *p < 0.01 vs control

| Compound | Immobility Time (mean ± S.E.) [1, 5] | Immobility Time (mean ± S.E.) [1, 6] | Immobility Time (mean ± S.E.) ([1]; 300 mg/kg, oral twice) | Effect on the immobility time in the forced swimming test (in words) ([1]; oral twice) | Immobility Time (mean ± S.E.) ([1]; 0.3 mg/kg, oral twice (after Session I and 1 hr before Session II)) | Immobility Time (mean ± S.E.) [1, 7] | Immobility Time (mean ± S.E.) [1, 8] | Immobility Time (mean ± S.E.) [1, 9] | No. of escape failures (mean ± S.E.) ([2]; 1 mg/kg) | No. of escape failures (mean ± S.E.) ([2]; 3 mg/kg) | No. of escape failures (mean ± S.E.) ([2]; 10 mg/kg, *p < 0.01) | LD50 at 336 h [3] | LD50 at 336 h [4] | Immobility Time (mean ± S.E.) ([1]; 50 mg/kg, oral twice, *p < 0.01 vs control) | Effect on failure to escape in the learned helplessness test (in words) ([2]; 10 mg/kg, oral) |
| --- | --- | --- | --- | --- | --- | --- | --- | --- | --- | --- | --- | --- | --- | --- | --- |
| COC1=C(OC)C(=O)C(CCCCCCCCCCO)=C(C)C1=O [idebenone] | 178.2 ± 17.6 s | 154.4 ± 17.4 s | 180.9 ± 13.9 s | did not influence the immobility time | – | – | – | – | – | – | – | – | – | – | – |
| O=C1CC[C@H](C(=O)N2CCCCC2)N1 [Compound No. 2, D-(+)-1-(2-Pyrrolidone-5-carbonyl)piperidine] | 61.3 ± 8.5 s | 53.8 ± 12.6 s | – | – | 153.0 ± 17.2 s | 119.4 ± 11.0 s | 82.2 ± 18.1 s | 93.7 ± 13.4 s | 20.20 ± 4.89 | 13.60 ± 4.15 | 0.90 ± 0.69 | 4160 mg/kg | ≥ 5000 mg/kg | – | – |
| CNCCCN1c2ccccc2CCc2ccccc21 [desipramine] | 34.8 ± 12.2 s | – | – | shortened the immobility time significantly and dose dependently at 3 mg/kg and higher doses | – | 134.2 ± 20.8 s | 83.2 ± 16.1 s | 54.7 ± 15.8 s | 32.10 ± 2.66 | 19.00 ± 5.65 | 0.60 ± 0.27 | – | – | 41.8 ± 9.8 s | significant inhibitory effects on this failure to escape at 10 mg/kg |
| COc1ccc(C(=O)N2CCCC2=O)cc1 [aniracetam] | 162.6 ± 14.5 s | 175.6 ± 13.8 s | – | did not influence the immobility time | – | – | – | 168.9 ± 18.0 s | – | – | – | – | – | – | – |
